Test results published in ChEMBL document CHEMBL4024702, “Covalent Modifiers: A Chemical Perspective on the Reactivity of α,β-Unsaturated Carbonyls with Thiols via Hetero-Michael Addition Reactions” (J Med Chem, 2017).
Blank lines part the entries; values can stand above or below the molecule they belong to. Non-standard residues stand in square brackets, D forms with d. Residues, ends and D or L forms follow the SMILES beside them. *: point of attachment. Cbz = O=C(OCc1ccccc1)*; Dap = NC[C@H](N)C(=O)O

Assays:
[1] = Reversible inhibition of human rhinovirus serotype 14 3C protease by fluorescence resonance energy transfer assay; design: species or system rhinovirus B14
rhinovirus B14 [2] = test: Antiviral activity against rhinovirus serotype 14 infected in human H1HeLa cells after 2 days by XTT/PMS dye based assay; assay type: functional, cell-based; conditions: Rhinovirus B, H1-HeLa, 48 h
[3] = Cytotoxicity against human H1HeLa cells after 2 days by XTT/PMS dye based assay; assay type: cell-based, H1-HeLa
[4] = molecular target: T1, Calpain-1 catalytic subunit (Homo sapiens, UniProt P07384); test: Inhibition of human calpain 1 protease using Ac-LLY-AFC as substrate after 1 hr by fluorescence assay
T1 sequence (P07384 whole entry): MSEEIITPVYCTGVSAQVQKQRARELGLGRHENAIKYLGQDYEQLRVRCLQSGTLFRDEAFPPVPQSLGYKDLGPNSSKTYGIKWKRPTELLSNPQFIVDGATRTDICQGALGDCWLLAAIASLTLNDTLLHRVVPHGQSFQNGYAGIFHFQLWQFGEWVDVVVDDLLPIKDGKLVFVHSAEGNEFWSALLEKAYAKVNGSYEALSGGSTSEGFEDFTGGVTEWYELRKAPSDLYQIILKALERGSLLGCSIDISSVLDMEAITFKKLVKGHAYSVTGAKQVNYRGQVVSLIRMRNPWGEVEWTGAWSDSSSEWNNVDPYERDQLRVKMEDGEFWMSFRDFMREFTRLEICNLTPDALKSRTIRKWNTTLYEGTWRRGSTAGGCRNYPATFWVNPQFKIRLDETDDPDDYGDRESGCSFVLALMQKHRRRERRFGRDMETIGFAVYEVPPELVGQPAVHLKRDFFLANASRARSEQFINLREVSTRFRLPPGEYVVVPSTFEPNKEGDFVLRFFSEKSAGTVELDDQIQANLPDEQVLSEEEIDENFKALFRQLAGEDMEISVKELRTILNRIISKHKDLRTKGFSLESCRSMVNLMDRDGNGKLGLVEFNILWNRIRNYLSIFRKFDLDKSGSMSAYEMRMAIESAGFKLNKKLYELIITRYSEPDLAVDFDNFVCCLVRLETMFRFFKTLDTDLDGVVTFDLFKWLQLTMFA

[5] = Binding affinity to human rhinovirus serotype 14 3C protease; design: species or system rhinovirus B14
rhinovirus B14 [6] = test: Irreversible inhibition of human rhinovirus serotype 14 3C protease assessed as ratio of Kobs/I
Enterovirus = test: Antiviral activity against rhinovirus infected in human H1HeLa cells; assay type: functional; conditions: H1-HeLa
[7] = Cytotoxicity against human MRC5 cells; assay type: cell-based
[8] = Half life in human plasma; assay type: ADME, cell-free
[9] = Half life in dog plasma; assay type: ADME, cell-free, Canis lupus familiaris
[10] = Half life in rat plasma; assay type: ADME, cell-free

Structure (SMILES): CC(C)C[C@H](NC(=O)OCc1ccccc1)C(=O)N[C@@H](Cc1ccccc1)C(=O)N[C@H](/C=C1\CCCOC1=O)CCC(N)=O
Ki [1]: 0.03 µM
EC50 (rhinovirus B14 [2]): 16 µM
CC50 at 48 h [3]: > 100 µM

IC50 [4]: 0.003 to 0.079 µM
Structure (SMILES): CCCCCC/C=C\CC(=O)N[C@@H](CO)C(=O)N[C@H](C(=O)N[C@@H](CO)[C@@H](O)CC(=O)N[C@H](C(=O)N[C@@H]1/C=C/C(=O)N[C@@H](C(C)C)C(=O)N(C)[C@@H](Cc2ccc(O)cc2)C(=O)OC1)C(C)C)C(C)C

Structure (SMILES): CC(=O)NC[C@@H](C=O)NC(=O)[C@H](Cc1ccccc1)NC(=O)[C@H](CC(C)C)NC(=O)OCc1ccccc1 (Cbz-Leu-Phe-[Dap](Ac)-aldehyde)
Ki [5]: 0.006 µM

Ratio (rhinovirus B14 [6]): 1.47 ×10⁶ /M/s
EC90 (Enterovirus): 0.018 to 0.261 µM
half-life [8]: > 1 h
half-life [9]: > 1 h
half-life [10]: < 2 min
Structure (SMILES): CCOC(=O)/C=C/C(C[C@@H]1CCNC1=O)NC(=O)[C@@H](CC(=O)[C@@H](NC(=O)c1cc(C)on1)C(C)C)Cc1ccc(F)cc1 (stereo partly specified)
CC50 [7]: > 100 µM
